Data taken from patent US20240383900A1, “SUBSTITUTED PYRAZOLO [1,5-A]PYRIMIDINE-7-AMINE COMPOUNDS AS CDK INHIBITORS AND THEIR THERAPEUTIC USE” (Carrick Therapeutics Limited, priority 2021, published 2024).
pIC50: −log10 of the molar value. Where two headings read alike, the source gives them in different places.

Columns and labels:
Human CDK7/CycH/MAT1 = Human CDK7/CycH/MAT1 (Homo sapiens (Human), UniProt P50613); test: Radiometric protein kinase assay (33PanQinase Activity Assay), CDK7; type: biochemical; details: ATP 3 μM
A673 cells [1] = test: Cytotoxicity in A673 cells (Cell Titer Glo viability); type: cell-based; details: for Ratio of Biochemical Potency:Cellular Potency: CDK12 IC50 / A673 IC50; for IC50 / pIC50: Homo sapiens; for IC50: A673, read-out: Cellular Potency IC50 (nM) (in A673 cells); for pIC50: A673 cells, 72 hours, read-out: A673 IC50
How it was run: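 Cells plated at 1.2×10^5 per well in DMEM+10% FBS, 24 h, then compound series ± MLN4924 (30 nM final) in 0.1% DMSO for 72 h. Viability by Cell Titer Glo luminescence, normalised to vehicle (100%) and 0.1% Triton x-100 (0%); MLN4924 curves normalised to MLN4924-treated controls.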

Human CDK12 wt/CycK = Human CDK12 wt/CycK (Homo sapiens (Human), UniProt Q9NYV4); test: Radiometric protein kinase assay (33PanQinase Activity Assay), CDK12; type: biochemical; details: for CDK7/CDK12: ratio of CDK7 IC50 to CDK12 IC50, greater than 1 indicates selectivity for CDK12
How it was run: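 Radiometric 33P assay: ATP, test compound (in 10% DMSO) and premixed substrate/enzyme incubated 60 min at 30 °C, stopped with 2% H3PO4. 33Pi incorporation counted by scintillation; least-squares curve fit.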

A673 cells [2] = test: A673 cytotoxic potency shift in the presence of MLN4924 (cyclin K degrader activity); type: cell-based; details: 30 nM MLN4924, 72 hours
Method: Inhibition of cell viability by test compounds was assessed in A673 cells (ATCC CRL-1598) and the compound mode of action was attributed to a “molecular-glue”/cyclin K-degradation mechanism by probing for a loss of compound potency in the presence of the NEDD8-activating enzyme inhibitor, MLN4924.
Cells were plated in 96-well plates at a density of […] viable cells per well in 200 μL fully supplemented growth medium (DMEM+10% heat inactivated foetal bovine serum) and incubated for 24 hours in standard tissue culture conditions. Compounds, including MLN4924, were solubilised in DMSO and then diluted in fully supplemented growth medium at 2× their final assay concentration such that the final DMSO concentration was 0.1%. Growth medium in the assay plates was replaced with 50 μL of growth medium containing 2×MLN4924 (final assay concentration: 30 nM, where tested) or vehicle only and 50 μL of growth medium containing a 2× compound concentration series or vehicle only such that each compound was at 1× final assay concentration in 100 μL.
Cells were then incubated for 72 hours in standard tissue culture conditions before viability was assessed using 50 μL Cell Titer Glo reagent (Promega) per well and luminescence measured on an EnVision plate reader. Data were normalised to vehicle control (100%) and cells treated with 0.1% Triton x-100 for 1 hour before viability measurement (0%; full cell kill). IC50 values were determined using a semi-logistic curve fit with parameters “top” fixed at 100% and “bottom” at or below 0%. Viability curves generated in the presence of MLN4924 were normalised and fixed to controls treated with MLN4924.

[3] = ATP 0.3 μM, read-out: CDK12 IC50
[4] = read-out: CKD12 Biochemical Potency IC50

Human CDK12 wt/CycK, sequence (Q9NYV4 whole entry): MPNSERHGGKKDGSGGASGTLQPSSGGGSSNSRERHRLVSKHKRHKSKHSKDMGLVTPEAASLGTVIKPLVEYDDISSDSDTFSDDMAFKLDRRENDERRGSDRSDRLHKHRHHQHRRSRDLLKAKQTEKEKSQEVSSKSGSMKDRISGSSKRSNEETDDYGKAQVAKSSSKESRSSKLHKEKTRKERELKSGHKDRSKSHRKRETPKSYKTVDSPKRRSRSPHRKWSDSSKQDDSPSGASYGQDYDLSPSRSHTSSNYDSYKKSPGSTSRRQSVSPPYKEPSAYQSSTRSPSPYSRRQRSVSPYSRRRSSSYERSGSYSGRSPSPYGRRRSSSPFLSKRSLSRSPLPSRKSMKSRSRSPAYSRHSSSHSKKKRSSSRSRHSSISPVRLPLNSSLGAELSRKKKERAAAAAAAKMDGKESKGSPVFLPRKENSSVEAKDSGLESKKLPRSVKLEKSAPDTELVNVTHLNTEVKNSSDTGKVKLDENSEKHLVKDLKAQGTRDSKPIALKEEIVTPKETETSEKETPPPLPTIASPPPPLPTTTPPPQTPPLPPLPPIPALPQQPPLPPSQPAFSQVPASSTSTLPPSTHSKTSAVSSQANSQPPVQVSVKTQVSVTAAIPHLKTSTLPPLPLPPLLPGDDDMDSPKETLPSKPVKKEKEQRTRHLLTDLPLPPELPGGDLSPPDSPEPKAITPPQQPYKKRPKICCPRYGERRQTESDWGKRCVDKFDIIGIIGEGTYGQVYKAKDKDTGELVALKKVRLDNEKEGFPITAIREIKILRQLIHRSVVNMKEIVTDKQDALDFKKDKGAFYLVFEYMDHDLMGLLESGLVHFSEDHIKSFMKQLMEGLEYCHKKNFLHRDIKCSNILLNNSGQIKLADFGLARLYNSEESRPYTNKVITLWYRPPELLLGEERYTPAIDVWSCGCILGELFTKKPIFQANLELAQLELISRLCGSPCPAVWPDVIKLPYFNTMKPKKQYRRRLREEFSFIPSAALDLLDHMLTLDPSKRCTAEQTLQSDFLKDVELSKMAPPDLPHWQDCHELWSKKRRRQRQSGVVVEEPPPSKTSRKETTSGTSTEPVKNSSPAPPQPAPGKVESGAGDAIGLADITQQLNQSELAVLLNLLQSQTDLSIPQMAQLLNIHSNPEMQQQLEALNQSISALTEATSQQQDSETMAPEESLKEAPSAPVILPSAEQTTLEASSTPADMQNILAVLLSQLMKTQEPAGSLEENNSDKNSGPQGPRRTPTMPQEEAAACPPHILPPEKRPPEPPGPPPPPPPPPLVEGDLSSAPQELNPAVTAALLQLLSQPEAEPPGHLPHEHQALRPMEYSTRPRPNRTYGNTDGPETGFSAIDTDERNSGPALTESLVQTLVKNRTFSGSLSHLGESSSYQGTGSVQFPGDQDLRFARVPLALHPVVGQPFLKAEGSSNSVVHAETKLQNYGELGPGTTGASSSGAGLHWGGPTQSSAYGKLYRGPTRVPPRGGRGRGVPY
Human CDK12 wt/CycK, sequence (O75909 whole entry partner): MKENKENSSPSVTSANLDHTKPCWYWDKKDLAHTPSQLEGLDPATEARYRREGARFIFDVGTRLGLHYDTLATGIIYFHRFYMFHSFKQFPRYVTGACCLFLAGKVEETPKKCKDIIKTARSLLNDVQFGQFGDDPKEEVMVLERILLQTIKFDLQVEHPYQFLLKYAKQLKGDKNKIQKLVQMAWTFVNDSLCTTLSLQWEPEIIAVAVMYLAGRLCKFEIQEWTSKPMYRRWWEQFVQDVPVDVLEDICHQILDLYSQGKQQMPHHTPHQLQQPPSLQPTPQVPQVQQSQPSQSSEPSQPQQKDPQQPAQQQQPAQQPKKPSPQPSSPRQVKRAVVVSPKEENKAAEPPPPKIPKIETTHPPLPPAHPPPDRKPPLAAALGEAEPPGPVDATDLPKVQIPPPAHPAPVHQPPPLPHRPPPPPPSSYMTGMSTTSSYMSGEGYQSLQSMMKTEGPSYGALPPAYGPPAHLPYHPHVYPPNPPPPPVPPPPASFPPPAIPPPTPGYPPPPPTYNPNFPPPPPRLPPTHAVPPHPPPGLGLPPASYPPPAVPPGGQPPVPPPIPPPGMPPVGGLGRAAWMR
Human CDK7/CycH/MAT1, sequence (P50613 whole entry): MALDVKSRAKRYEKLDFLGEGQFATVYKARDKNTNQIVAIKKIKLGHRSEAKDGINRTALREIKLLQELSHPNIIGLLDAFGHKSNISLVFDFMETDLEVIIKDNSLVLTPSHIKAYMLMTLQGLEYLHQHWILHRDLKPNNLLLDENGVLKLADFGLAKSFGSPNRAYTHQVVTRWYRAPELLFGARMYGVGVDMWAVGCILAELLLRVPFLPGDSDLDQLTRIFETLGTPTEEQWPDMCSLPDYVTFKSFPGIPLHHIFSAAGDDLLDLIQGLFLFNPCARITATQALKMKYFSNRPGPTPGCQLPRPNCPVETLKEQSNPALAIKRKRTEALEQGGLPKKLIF
Human CDK7/CycH/MAT1, sequence (P51946 whole entry partner): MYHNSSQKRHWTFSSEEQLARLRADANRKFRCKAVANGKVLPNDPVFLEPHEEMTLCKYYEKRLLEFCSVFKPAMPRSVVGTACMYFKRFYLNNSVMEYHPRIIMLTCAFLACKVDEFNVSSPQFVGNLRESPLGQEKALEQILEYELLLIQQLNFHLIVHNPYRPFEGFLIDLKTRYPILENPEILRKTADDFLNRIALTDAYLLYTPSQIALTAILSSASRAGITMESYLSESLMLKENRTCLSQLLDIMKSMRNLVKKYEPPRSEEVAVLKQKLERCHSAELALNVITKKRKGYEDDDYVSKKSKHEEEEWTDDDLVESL
Human CDK7/CycH/MAT1, sequence (P51948 whole entry partner): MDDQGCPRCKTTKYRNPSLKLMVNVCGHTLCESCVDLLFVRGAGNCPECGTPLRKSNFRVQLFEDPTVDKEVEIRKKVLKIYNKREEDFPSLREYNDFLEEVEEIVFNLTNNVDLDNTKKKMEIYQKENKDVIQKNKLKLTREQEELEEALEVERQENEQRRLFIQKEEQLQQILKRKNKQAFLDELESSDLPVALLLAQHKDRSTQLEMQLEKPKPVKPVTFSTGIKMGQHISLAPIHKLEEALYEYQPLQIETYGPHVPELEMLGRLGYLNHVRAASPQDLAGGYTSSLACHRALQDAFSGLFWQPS

Row | pIC50 (Human CDK7/CycH/MAT1) | pIC50 (Human CDK12 wt/CycK; [3]) | CDK7/CDK12 (Human CDK12 wt/CycK) | pIC50 (Human CDK12 wt/CycK; [4]) | SMILES | Ratio of Biochemical Potency:Cellular Potency (A673 cells [1]) | IC50 (A673 cells [1]) [nM] | pIC50 (A673 cells [1]) | Cyclin K Degrader Activity (A673 potency shift + MLN4924) (A673 cells [2])
1 | 6.63 | 7.89 | 18.1 | 7.89 | N#Cc1cnn2c(NCc3ccc(-c4ccccn4)cc3)cc(N[C@H]3CCCNC3)nc12 [PPA-092] | 32.50 | 0.4 | 9.00 | +++ (>5 fold change.)
2 | 6.00 | 7.47 | 29.4 | 7.47 | Fc1cc(-c2ccccn2)ccc1CNc1cc(N[C@H]2CCNC2)nc2c(C3CC3)cnn12 [PPA-072] | 42.50 | 0.8 | 9.10 | +++ (>5 fold change.)
3 | 6.97 | 7.41 | 2.7 | 7.41 | O[C@H]1CNCC[C@@H]1CNc1cc(NCc2ccc(-c3nccs3)cc2)n2ncc(C3CC3)c2n1 [PPA-018] | 43.33 | 0.9 | 9.05 | +++ (>5 fold change.)
4 | 6.38 | 7.96 | 37.9 | 7.96 | N#Cc1cnn2c(NCc3ccc(-c4ccccn4)cc3)cc(N[C@H]3CCNC3)nc12 [PPA-086] | 12.22 | 0.9 | 9.05 | +++ (>5 fold change.)
5 |  |  |  |  | N#Cc1cnn2c(NCc3ccc(-c4ncccn4)cc3)cc(N[C@H]3CCCNC3)nc12 [PPA-094] |  | 0.9 | 8.72 | +++ (>5 fold change.)
6 | 5.28 | 6.69 | 25.8 | 6.69 | c1ccc(-c2ccc(CNc3cc(C4CNC4)nc4c(C5CC5)cnn34)cc2)nc1 [PPA-058] | 29.57 | 6.9 | 8.16 | +++ (>5 fold change.)
7 | 6.01 | 7.49 | 30.7 | 7.49 | c1ccc(-c2ccc(CNc3cc(OC4CNC4)nc4c(C5CC5)cnn34)cc2)nc1 [PPA-049] | 4.64 | 6.9 | 8.16 | +++ (>5 fold change.)
8 | 5.51 | 6.42 | 8.0 | 6.42 | c1cnn(-c2ccc(CNc3cc(N[C@H]4CCNC4)nc4c(C5CC5)cnn34)cc2)c1 [PPA-091] | 50.26 | 7.6 | 7.99 | +++ (>5 fold change.)
9 | 6.24 | 6.84 | 4.0 | 6.84 | CC(C)c1cnn2c(NCc3ccc(-c4ccccc4)cc3)cc(NC[C@H]3CCNC[C@@H]3O)nc12 [PPA-004, (3R,4R)-4-(((7-(([1,1′-biphenyl]-4-ylmethyl)amino)-3-isopropylpyrazolo[1,5-a]pyrimidin-5-yl)amino)methyl)piperidin-3-ol] | 22.70 | 6.3 | 8.20 | +++ (>5 fold change.)
10 | 6.17 | 7.64 | 29.3 | 7.64 | N#Cc1cnn2c(NCc3ccc(-c4ccccc4)cc3)cc(N[C@H]3CCNC3)nc12 [PPA-085] | 17.69 | 1.3 | 8.89 | ++ (>2 and ≤5 fold change.)
11 | 6.65 | 7.51 | 7.2 | 7.51 | Clc1cnn2c(NCc3ccc(-c4ccccn4)cc3)cc(N[C@H]3CCCNC3)nc12 [PPA-093] | 9.69 | 3.2 | 8.77 | ++ (>2 and ≤5 fold change.)
12 | 6.38 | 7.64 | 18.2 | 7.64 | c1cnc(-c2ccc(CNc3cc(N[C@H]4CCNC4)nc4c(C5CC5)cnn34)cc2)nc1 [PPA-090] | 4.89 | 4.7 | 8.28 | +++ (>5 fold change.)
13 |  |  |  |  | c1ccc(-c2ccc(CNc3cc(C4CCNCC4)nc4c(C5CC5)cnn34)cc2)nc1 [PPA-100] |  | 1.5 | 7.36 | +++ (>5 fold change.)
14 |  |  |  |  | Cc1n[nH]cc1-c1cc(NCc2ccc(-c3ccccn3)cc2)n2ncc(C3CC3)c2n1 [PPA-095] |  | 43.5 | 8.33 | + (>1 and ≤2 fold change.)
15 | 6.47 | 7.29 | 6.6 | 7.29 | c1ccc(-c2ccc(CNc3cc(N[C@H]4CCCNC4)nc4c(C5CC5)cnn34)cc2)nc1 [PPA-044] | 18.89 | 2.7 | 8.57 | +++ (>5 fold change.)
16 | 6.57 | 7.74 | 14.9 | 7.74 | c1ccc(-c2ccc(CNc3cc(O[C@H]4CCCNC4)nc4c(C5CC5)cnn34)cc2)nc1 [PPA-064] | 15.00 | 1.2 | 8.92 | +++ (>5 fold change.)
17 | 5.54 | 7.11 | 37.3 | 7.11 | c1ccc(-c2ccc(CNc3cc(O[C@@H]4CCNC4)nc4c(C5CC5)cnn34)cc2)nc1 [PPA-060] | 26.55 | 2.9 | 8.54 | +++ (>5 fold change.)
18 | 6.25 | 6.97 | 5.3 | 6.97 | N#Cc1cnn2c(NCc3ccc(-c4ccccc4)cc3F)cc(NC[C@H]3CCNC[C@@H]3O)nc12 [PPA-070] | 20.19 | 5.3 | 8.28 | +++ (>5 fold change.)
19 |  |  |  |  | c1csc(-c2ccc(CNc3cc(N[C@H]4CCNC4)nc4c(C5CC5)cnn34)cc2)n1 [PPA-098] |  | 8.1 | 8.49 | +++ (>5 fold change.)
20 | 5.79 | 6.30 | 3.2 | 6.30 | CO[C@H]1CNCC[C@@H]1CNc1cc(NCc2ccc(-c3ccccn3)cc2)n2ncc(C3CC3)c2n1 [PPA-087] | 57.82 | 8.7 | 8.06 | +++ (>5 fold change.)
21 |  |  |  |  | c1cnn(-c2ccc(CNc3cc(N[C@H]4CCCNC4)nc4c(C5CC5)cnn34)cc2)c1 [PPA-099] |  | 1.2 | 9.05 | ++ (>2 and ≤5 fold change.)
22 |  |  |  |  | c1cnn(-c2ccc(CNc3cc(OC4CNC4)nc4c(C5CC5)cnn34)cc2)c1 [PPA-097] |  | 3.5 | 9.40 | +++ (>5 fold change.)
23 |  |  |  |  | Cc1ncccc1-c1cc(NCc2ccc(-c3ccccn3)cc2)n2ncc(C3CC3)c2n1 [PPA-096] |  | 14.9 | 8.12 | +++ (>5 fold change.)
24 | 6.23 | 7.11 | 7.5 | 7.11 | O[C@H]1CNCC[C@@H]1CNc1cc(NCc2cn(-c3ccccn3)cn2)n2ncc(C3CC3)c2n1 [PPA-025] | 13.22 | 5.9 | 8.23 | 

Row | SMILES | pIC50 (Human CDK7/CycH/MAT1) | pIC50 (Human CDK12 wt/CycK; [3]) | CDK7/CDK12 (Human CDK12 wt/CycK) | pIC50 (Human CDK12 wt/CycK; [4]) | Ratio of Biochemical Potency:Cellular Potency (A673 cells [1]) | IC50 (A673 cells [1]) [nM] | pIC50 (A673 cells [1]) | Cyclin K Degrader Activity (A673 potency shift + MLN4924) (A673 cells [2])
25 | CN(c1cc(NCc2ccc(-c3ccccn3)cc2)n2ncc(C3CC3)c2n1)C1CCNCC1 [PPA-039] | 5.68 | 6.77 | 12.4 | 6.77 | 60.36 | 2.8 | 8.55 | + (>1 and ≤2 fold change.)
